Data published in PubChem BioAssay (NCI).
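GI50 = concentration required for 50% inhibition of growth. Definition used: TGI = concentration required for complete inhibition of growth.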

Assays:
Test in all cases: inhibition of tumour cell growth, NCI panel, 384-well format
CAKI-1 renal = system: CAKI-1 renal
OVCAR-3 ovarian = system: OVCAR-3 ovarian
HCT-116 colon = system: HCT-116 colon
M14 melanoma = system: M14 melanoma
HL-60(TB) leukemia = system: HL-60(TB) leukemia
HCC-2998 colon = system: HCC-2998 colon
SNB-19 CNS = system: SNB-19 CNS
NCI-H322M lung = system: NCI-H322M lung
LOX IMVI melanoma = system: LOX IMVI melanoma
DU-145 prostate = system: DU-145 prostate
IGROV1 ovarian = system: IGROV1 ovarian
RPMI-8226 leukemia = system: RPMI-8226 leukemia
MDA-MB-231 breast = system: MDA-MB-231 breast

`CC1(N)CCN(c2cccnc2NC(=O)c2nc(-c3ncccc3C(F)(F)F)cnc2N)CC1` showed a GI50 (CAKI-1 renal) of 6.11 µM, a TGI (CAKI-1 renal) of 24.2 µM and a GI50 (OVCAR-3 ovarian) of 15.1 µM. For the same compound, the TGI (OVCAR-3 ovarian) was 44.5 µM, the GI50 (HCT-116 colon) was 11.6 µM and the TGI (HCT-116 colon) was 26 µM. For the same compound, the GI50 (M14 melanoma) was 20.3 µM, the TGI (M14 melanoma) was 40.3 µM and the GI50 (HL-60(TB) leukemia) was 7.32 µM. It also gave a TGI (HL-60(TB) leukemia) of 18 µM, a GI50 (HCC-2998 colon) of 17.9 µM and a TGI (HCC-2998 colon) of 33.4 µM. For the same compound, the GI50 (SNB-19 CNS) was 27.8 µM, the TGI (SNB-19 CNS) was greater than 76.7 µM and the GI50 (NCI-H322M lung) was 23.7 µM. It also gave a TGI (NCI-H322M lung) greater than 60 µM, a GI50 (LOX IMVI melanoma) of 19 µM and a TGI (LOX IMVI melanoma) of 33.6 µM. For the same compound, the GI50 (DU-145 prostate) was 19.3 µM, the TGI (DU-145 prostate) was greater than 58.8 µM and the GI50 (IGROV1 ovarian) was 3.28 µM. The TGI (IGROV1 ovarian) was 15 µM, the GI50 (RPMI-8226 leukemia) was 10.4 µM and the TGI (RPMI-8226 leukemia) was 32.8 µM. For the same compound, the GI50 (MDA-MB-231 breast) was 20.5 µM and the TGI (MDA-MB-231 breast) was 46.9 µM.
